Source: US20030229108A1, “Barbituric acid analogs as therapeutic agents” (priority 2000, published 2003)

Tests used:
VEGF = experiment: VEGF-ELISA (Quantikine sandwich immunoassay of VEGF in cell supernatant); type: cell-based; settings: Homo sapiens, 17 h; read-out: Secondary Assay VEGF-ELISA IC50
Experimental: This assay employs the quantitative sandwich enzyme immunoassay technique. A monoclonal antibody (R&D Systems®, Abingdon, Oxon, UK) specific for VEGF was pre-coated onto a microplate. To this was added a sample containing VEGF. After washing, a second anti-VEGF antibody coupled to horseradish peroxidase was added. […] Typically, cells were plated at a concentration of 2.5×10^4 cells/well, and incubated with either 100 μM desferroxamine or at 0.1% O2 for 17 hours at 37° C. 200 μL of supernatant were removed and the VEGF quantitated using the Quantikine® ELISA kit from R&D Systems® (catalog # DVEOO) exactly according to the manufacturer's instructions. The assay is calibrated each time using recombinant human VEGF.

[1] = biological target: T1, interaction between HIF-1α and p300 (His-HIF-1α / GST-p300) (Homo sapiens, UniProt Q09472+Q16665); experiment: Primary assay: fluorescence-based (DELFIA) screening assay for inhibition of the HIF-1α/p300 interaction; type: binding
T1 construct: corresponding to the C-terminal 390 amino acids into vector pET28a; A plasmid containing the N-terminal 595 amino acids of human p300; made in house; host or cells: E. coli
Experimental: Candidate compounds were assessed for their ability to inhibit the interaction between HIF-1α and p300 using a high throughput fluorescence-based screening assay (DELFIA) as follows.
A plasmid expressing His-HIF-1α fusion protein was constructed by PCR, by amplifying and subcloning a fragment of the human HIF-1α cDNA (NCBI GenBank, accession number AH006957) corresponding to the C-terminal 390 amino acids into vector pET28a (Novagen®, Madison, Wis., USA). A plasmid containing the N-terminal 595 amino acids of human p300 (NCBI GenBank, accession number U01877) inserted into vector pGEX2T (Pharmacia®, Little Chalfont, Bucks, UK) was used for the production of GST-p300 fusion protein. The recombinant proteins were produced in E. coli. His-HIF-1α was purified using Ni-NTA agarose beads, according to manufacture's method (Qiagen®, Crawley, West Sussex, UK). GST-p300 was purified using Glutathione-sepharose beads (Amersham Pharmacia®, Little Chalfont, Bucks, UK) according to manufacturer's instructions. A titration of every batch of p300 was carried out in order to determine the optimum dilution of the protein to obtain at least a 10:1 ratio signal to noise in the binding assay.
The assay was performed in 96-well Polysorb plates (Nalge Nunc International®, Rochester, N.Y., USA) as follows. Plates were coated with His-HIF-1α at 50 ng/well in […] and incubated overnight at 4° C. The plates were then washed 3 times with deionized water and blocked with 100 μL/well 3% BSA in PBS for 3 hours at 4° C. After washing 3 times as before, GST-p300 was added at the appropriate dilution (1:800 in this screening) in binding buffer (50 mM HEPES pH 7.5, 50 mM NaCl, 0.1% BSA, 0.5 mM DTT). The reaction was incubated at room temperature for 1 hour. Plates were washed 3 times and anti-GST Europium-conjugated antibody (from Wallac®, Turku, Finland) was added at 50 ng/well in […]. After 45 minutes incubation, plates were washed 3 times as before. Then, 100 μL/well enhancement solution (from Wallac®, Catalog No. 1244-105) was added and allowed to react for 15 minutes at room temperature. Plates were read on a Victor 2 plate reader (from Wallac®).

[2] = tested on: VEGF promoter (VEGF-luciferase reporter) in Hepatoma 3B (hep3B) cells; experiment: VEGF-luciferase cell-based reporter assay, desferoxamine-induced, Hepatoma 3B (hep3B) cells; settings: 15 h, read-out: Secondary Assay VEGF-luciferase IC50
Description: This cell-based reporter assay involves the use of a luciferase reporter gene under the direct control of the VEGF promoter. Induction of HIF using desferoxamine leads to the transcription of luciferase through activation of the VEGF (Vascular Endothelial Growth Factor) promoter, which in turn leads to an increase in luciferase activity, which can be measured using most commercially available luciferase assay kits. Molecules that disrupt the HIF complex cause inhibition of HIF-dependent luciferase activation and lead to a reduction in luciferase activity. This assay allows the activity of the compounds to be assessed against the VEGF promoter, which is essential for VEGF production and subsequent angiogenesis.
Hepatoma 3B (hep3B) cells (ATCC Ref. No. HB-8064) were plated in 24-well plates at 2×10^4/well in 500 μL DMEM/10% FCS, and were transfected the following day using Fugene 6 (Roche Biochemicals®, Lewes, E. Sussex, UK). Transfection mixtures per well contained 6 μL 10% Fugene, 200 ng VEGF-luciferase reporter (rat VEGF promoter, NCBI GenBank, accession number U22373, Levy et al., 1995) and 2 ng TK-renilla (Promega®, Madison, Wis., USA) (for transfection efficiency control). Transfection was performed as recommended by manufacturer. Compounds were added the following day. After 1 hour incubation at 37° C., desferoxamine (Sigma®, Dorset, UK) was added at 100 μM to induce HIF activity. Duplicate wells without desferoxamine were run in parallel. Cells were harvested 15 hours later, and luciferase activity was measured using Dual Luciferase Assay System (Promega®, see also Technical Manual, Part #TM040, Instructions for Use of Products E1910 and E1960, revised May/1999).

T1 sequence (Q16665 437-826 limits assumed): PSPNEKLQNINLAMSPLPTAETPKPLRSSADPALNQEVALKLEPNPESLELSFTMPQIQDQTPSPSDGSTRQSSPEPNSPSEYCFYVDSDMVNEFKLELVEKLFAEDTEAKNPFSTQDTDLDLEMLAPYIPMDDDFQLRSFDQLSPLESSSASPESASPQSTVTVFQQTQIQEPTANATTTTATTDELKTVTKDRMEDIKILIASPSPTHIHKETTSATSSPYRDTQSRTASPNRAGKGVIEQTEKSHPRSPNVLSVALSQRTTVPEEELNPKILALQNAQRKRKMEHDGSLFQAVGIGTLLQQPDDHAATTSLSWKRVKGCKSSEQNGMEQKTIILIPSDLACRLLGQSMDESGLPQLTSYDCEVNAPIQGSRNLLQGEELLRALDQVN
T1 sequence (Q09472 1-595 limits assumed): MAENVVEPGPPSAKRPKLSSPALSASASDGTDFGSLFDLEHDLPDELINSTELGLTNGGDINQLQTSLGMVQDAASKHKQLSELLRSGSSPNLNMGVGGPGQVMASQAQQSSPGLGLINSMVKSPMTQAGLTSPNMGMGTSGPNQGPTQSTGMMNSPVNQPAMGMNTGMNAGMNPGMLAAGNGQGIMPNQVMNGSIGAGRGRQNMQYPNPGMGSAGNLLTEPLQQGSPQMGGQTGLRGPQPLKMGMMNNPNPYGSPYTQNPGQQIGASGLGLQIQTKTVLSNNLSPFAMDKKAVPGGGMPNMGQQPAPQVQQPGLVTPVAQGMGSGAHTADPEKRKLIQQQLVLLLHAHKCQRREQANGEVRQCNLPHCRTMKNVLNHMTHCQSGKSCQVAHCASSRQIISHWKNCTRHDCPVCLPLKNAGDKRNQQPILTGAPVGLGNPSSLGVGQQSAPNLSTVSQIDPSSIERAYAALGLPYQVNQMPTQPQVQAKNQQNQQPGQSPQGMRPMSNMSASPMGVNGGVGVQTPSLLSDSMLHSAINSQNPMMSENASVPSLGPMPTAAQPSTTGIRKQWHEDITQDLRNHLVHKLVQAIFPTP

SMILES	IC50 (VEGF)	IC50 [1]	IC50 [2]	melting point
CCN(CC)c1ccc(C=C2C(=O)NC(=O)NC2=O)cc1 [P2083675]	75 µM	35 µM	50 µM	
O=C1NC(=O)C(=Cc2ccc([N+](=O)[O-])s2)C(=O)N1 [PX074037]	30 µM	100 µM	35 µM	
O=C1NC(=S)NC(=O)C1=Cc1ccc([N+](=O)[O-])s1 [PX074038, 5-(5-Nitro-thiophen-2-ylmethylene)-2-thioxo-dihydro-pyrimidine-4,6-dione]		20 µM	50 µM	285 °C (dec.)
O=C1NC(=S)NC(=O)C1=Cc1c[nH]c2ccccc12 [PX075276, 5-(1H-Indol-3-ylmethylene)-2-thioxo-dihydro-pyrimidine-4,6-dione]	18.8 µM	30 µM	10.8 µM	
O=C1NC(=S)NC(=O)C1=Cc1ccc(-c2cc(C(F)(F)F)cc(C(F)(F)F)c2)o1 [PX075367]	75 µM	45 µM	50 µM	
Cc1cc(C)c(C=C2C(=O)NC(=S)NC2=O)[nH]1 [PX089624]	6.2 µM	45 µM	12.5 µM	
CN(C)c1ccc(C=C2C(=O)NC(=S)NC2=O)cc1 [PX089631, 5-(4-dimethylamino-benzylidene)-2-thioxo-dihydro-pyrimidine-4,6-dione]	27.5 µM	25 µM	16.3 µM	
O=C1NC(=S)NC(=O)C1=Cc1cccc2ccccc12 [PX089635, 5-(Naphthalen-1-ylmethylene)-2-thioxo-dihydro-pyrimidine-4,6-dione]		80 µM		280 °C (dec.)
O=C1NC(=S)NC(=O)C1=Cc1ccc[nH]1 [PX089639, 5-(1H-pyrrol-2-ylmethylene)-2-thioxo-dihydro-pyrimidine-4,6-dione]	50 µM	20 µM	25 µM	280 °C (dec.)
CN(CCC#N)c1ccc(C=C2C(=O)NC(=S)NC2=O)cc1 [PX089643]	100 µM	55 µM	87.5 µM	
O=C1C(=Cc2ccc(Cl)cc2)C(=O)N(c2ccccc2)C(=S)N1c1ccccc1 [PX089645, 5-(4-Chloro-benzylidene)-1,3-diphenyl-2-thioxo-dihydro-pyrimidine-4,6-dione]	200 µM	80 µM		
O=C1NC(=S)NC(=O)C1=Cc1cc(Br)cs1 [PX089648, 5-(4-Bromo-thiophen-2-ylmethylene)-2-thioxo-dihydro-pyrimidine-4,6-dione]	32.5 µM	45 µM	30 µM	230 °C (dec.)
O=C1NC(=S)NC(=O)C1=Cc1ccc(Oc2ccccc2)cc1 [PX106021, 5-(4-Phenoxy-benzylidene)-2-thioxo-dihydro-pyrimidine-4,6-dione]	80 µM		100 µM	
Cc1cc(C=C2C(=O)NC(=S)NC2=O)c(C)n1-c1ccccc1 [PX106151]	75 µM	160 µM	40 µM	
Cc1cc(C)cc(-n2c(C)cc(C=C3C(=O)NC(=S)NC3=O)c2C)c1 [PX106155]	45 µM	10 µM	27.5 µM	
CCN1C(=O)/C(=C/C=C/c2ccco2)C(=O)NC1=S [PX106281]	30 µM	35 µM	28 µM	
O=C1NC(=S)NC(=O)C1=Cc1cn(Cc2ccccc2)c2ccccc12 [PX106341]	20 µM	49 µM	57.5 µM	
